Patent US4931391A, “Method for preservation of nitrile hydration activity” (Mitsubishi Rayon Kabushiki Kaisha, priority 1986, dated 1990)
Where two headings read alike, the source gives them in different places.

How the values were obtained:
[1] = target: T1, (Rhodococcus erythropolis, UniProt P13448+P13449); test: Preservation of nitrile hydration activity of cell extract, Brevibacterium CBS-717; assay type: biochemical; details: 48 h; Brevibacterium CBS-717 extract; 1 ml + 1 ml buffer pH 6.5 containing 10 g/l stabilizer; 2 days at 20° C.; read-out: % Residual Activity
T1 construct: whereby a cell extract was obtained; endogenous in cells; host or cells: Brevibacterium CBS-717, French press cell extract
Experimental: In each of the following experimental examples, 0.1 ml of an enzyme solution was charged into a beaker containing 9.9 ml of phosphate buffer and irradiated with a 100-W EYE LAMP (supplied by Toshiba, Japan) positioned at a distance of 50 cm for 30 minutes in a bath maintained at 10° C. to induce the enzyme activity to the fullest extent. The resulting solution was then added to 10 ml of M/20 phosphate buffer (pH 7.7) containing 5.0% by weight of acrylonitrile to cause reaction at 10° C. for 10 minutes. The nitrile hydration activity of the test enzyme solution was determined by measuring the quantity of acrylamide produced by gas chromatography, the capability of producing 1μ mole of acrylamide per ml of the enzyme solution per minute being designated as 1 unit (U). […]
(§1) The cell extract thus obtained was divided into two aliquots, 1 ml of one aliquot being mixed with 1 ml of M/10 phosphate buffer (pH 6.5) containing 10 g/l of ammonium isobutyrate, and 1 ml of the other aliquot being mixed with 1 ml of M/10 phosphate buffer (pH 6.5) as a comparison example. Both solutions were left standing for 2 days at 20° C., and the nitrile hydration activity levels were measured before and after each of the solutions were left standing to calculate % residual activity.

nitrilase [2] = details: 1 ml + 1 ml buffer pH 6.5 containing 10 g/l stabilizer, 2 days at 20° C.
Experimental: In each of the following experimental examples, 0.1 ml of an enzyme solution was charged into a beaker containing 9.9 ml of phosphate buffer and irradiated with a 100-W EYE LAMP (supplied by Toshiba, Japan) positioned at a distance of 50 cm for 30 minutes in a bath maintained at 10° C. to induce the enzyme activity to the fullest extent. The resulting solution was then added to 10 ml of M/20 phosphate buffer (pH 7.7) containing 5.0% by weight of acrylonitrile to cause reaction at 10° C. for 10 minutes. The nitrile hydration activity of the test enzyme solution was determined by measuring the quantity of acrylamide produced by gas chromatography, the capability of producing 1μ mole of acrylamide per ml of the enzyme solution per minute being designated as 1 unit (U).
Each aliquot of a suspension of cells of a genus as shown in Table 2 prepared as in Comparison Example 1 was subjected to French press treatment and centrifugation similarly as in Comparison Example 1, whereby a cell extract was obtained.
as §1

[3] = target: T2, (Rhodococcus erythropolis, UniProt P13448+P13449); test: Preservation of nitrile hydration activity of cell extract (crude enzyme solution), stabilizer added before crushing cells; assay type: biochemical, Corynebacterium strain N-774(FERM P-4446); details: left standing 2 days at 20° C.; buffer containing 10 g/l stabilizer mixed 1:1, pH 6.5
T2 sequence (P13448 2-207 limits assumed): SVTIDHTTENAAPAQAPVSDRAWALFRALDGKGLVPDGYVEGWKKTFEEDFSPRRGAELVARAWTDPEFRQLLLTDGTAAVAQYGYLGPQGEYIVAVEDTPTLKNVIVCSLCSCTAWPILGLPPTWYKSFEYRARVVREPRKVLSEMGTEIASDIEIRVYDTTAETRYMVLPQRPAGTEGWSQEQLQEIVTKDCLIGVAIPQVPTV
T2 sequence (P13449 1-212): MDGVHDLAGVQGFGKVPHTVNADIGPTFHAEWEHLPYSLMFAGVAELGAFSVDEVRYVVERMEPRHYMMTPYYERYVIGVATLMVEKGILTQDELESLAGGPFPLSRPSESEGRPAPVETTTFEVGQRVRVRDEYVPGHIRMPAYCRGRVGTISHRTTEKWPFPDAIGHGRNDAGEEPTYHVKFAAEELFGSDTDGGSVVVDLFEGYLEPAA
Experimental: (§2) A culture medium comprising 10 g/l of glucose, 5 g/l of peptone, 3 g/l of yeast extract, and 3 g/l of malt extract was adjusted to a pH of 7.2, and 100 ml of the resulting culture medium was sterilized in a 500-ml Erlenmeyer flask.
(§3) After cooling, the sterilized culture medium was inoculated with 1 ml of a culture fluid obtained by precultivating strain N-774(FERM P-4446) of the genus Corynebacterium in the same culture medium as is described above for 2 days, and cultivation was carried out aerobically at 30° C. for 2 days.
(§4) Cells were separated from the culture fluid by centrifugation (3° C., 10,000 rpm, 20 minutes) and washed with a physiological saline. The washed cells were subjected to centrifugation under the same conditions and then suspended in a physiological saline to obtain a suspension of washed cells.
(§5) The residual nitrile hydration activity percent (in Table 1, as in all succeeding tables, abbreviated to % residual activity) was calculated on the basis of the data thus obtained.

nitrilase [4] = target: T3, nitrilase (Rhodococcus erythropolis, UniProt P13448+P13449); test: as above; assay type: biochemical, Corynebacterium strain N-774(FERM P-4446)
T3 sequence (P13448 2-207 limits assumed): T2 sequence (P13448 2-207 limits assumed)
T3 sequence (P13449 1-212): T2 sequence (P13449 1-212)
Experimental: as §2, §3, §4, §5

With CC(C)C(=O)O.N [ammonium isobutyrate] the activity at 5000 µg/mL [1] was 89%, the “% Residual Activity” value (nitrilase [2]; Bacillus CBS-494 extract) was 83% and the “% Residual Activity” value (nitrilase [2]; Bacteridium CBS-496 extract) was 78%. For the same molecule, the “% Residual Activity” value (nitrilase [2]; Micrococcus CBS-497 extract) was 91%, the “% Residual Activity” value (nitrilase [2]; Nocardia N-775 extract) was 93% and the “% Residual Activity” value [3] was 92%. For the same molecule, the “Activity Before Being Left Standing” value (nitrilase [4]; cell suspension mixed 1:1 with M/10 phosphate buffer pH 6.5 containing 10 g/l stabilizer, then French press) was 1.3 × 10^3 U/ml and the “Activity After Being Left Standing” value (nitrilase [4]; same extract after 2 days at 20° C.) was 1.2 × 10^3 U/ml.
